Assay [1] has as its system ovarian cancer cell line, CAOV-3. Kind of assay: MiCK-type apoptosis drug screening assay, CAOV-3. Type of assay: cell-based. The conditions noted are these: CAOV-3 cells; as Example 1 but with higher drug concentrations. The source says: (§1) KU=(VmaxDrug Treated−VmaxControl)×60×y/(ODcell−ODblank).
(§2) Vmax is the maximum kinetic rate, which is the slope of the steep increase in the OD v. time plot when cells are undergoing apoptosis. Vmax in this equation is given in milli-optical density units/hour (mOD/h). ODcell is the initial OD of the control containing cells and ODblank is the initial OD of a blank well containing only medium or medium and drug (the drug may be omitted for some drugs, but for colored drugs in particular it may be included in the blank). y is a coefficient dependent on the cell type being assayed and may be determined experimentally through observation of the cell lines. Further information regarding this equation may be found in Kravtsov et al.
Cancer cells were obtained from exponentially growing cultures in RPMI 1640 medium without phenol red supplemented with 10% heat-inactivated fetal bovine serum, 100 U/ml penicillin and 100 μg/mL streptomycin (complete medium) in humidified air with 5% CO2 at 37° C. Cells were harvested, washed with pre-warmed medium and resuspended in complete medium. Appropriate cell counts and viability were tested.
Cells from each cell line in complete medium were placed in wells of a 96-well plate at a concentration of 2 to 5×10^5 cells/ml. Various dilutions of the drug candidate, Idarubicin, were added to the wells in 5 μL aliquots. Final concentrations for the drug candidate were 0.01, 0.1, 0.5, 1, 5, 10 and 20 μM. The plates were incubated at 37° C. for 30 minutes in a humidified 5% CO2 atmosphere. After this adjustment period, 30 μl of sterile mineral oil was layered on top of each well. The microtiter plate was placed in an incubated spectrophotometer chamber (37° C.) and OD at 600 nm was measured every 5 minutes for a period of 48 hours. The reader was calibrated to zero absorbance using well containing only complete medium and no cells. All tests were performed in triplicate.
Data acquisition and computation was performed using appropriate software. OD readings were plotted against time to provide a kinetic representation of cell responses to the drugs and drug candidate. Kinetic units were calculated for each test well. A kinetic unit below three was considered a negative response and above 3 was considered a positive response. A kinetic unit between 1.5 and 3 was considered a marginal response.
A variety of anti-cancer drugs were tested against a single ovarian cancer cell line, CAOV-3, to determine their suitability for use against ovarian cancer. Tests were performed in a manner similar to those in Example 1, but with higher drug concentrations.

Assay [2] concerns RAMOS, a B cell line derived from Burkitt's lymphoma. Kind of assay: MiCK-type apoptosis drug screening assay (OD 600 nm, kinetic units), RAMOS. The assay is classed as cell-based, human. The conditions noted are these: 0.01-20 μM.
Excerpt: as §1
as §2, with “al. […]” for “al.”
(§3) Cells from each cell line in complete medium were placed in wells of a 96-well plate at a concentration of 2 to 5×10^5 cells/ml. […] The microtiter plate was placed in an incubated spectrophotometer chamber (37° C.) and OD at 600 nm was measured every 5 minutes for a period of 48 hours. The reader was calibrated to zero absorbance using well containing only complete medium and no cells. […]
(§4) Data acquisition and computation was performed using appropriate software. OD readings were plotted against time to provide a kinetic representation of cell responses to the drugs and drug candidate. Kinetic units were calculated for each test well. […]

Assay [3] concerns MOLT-3, an acute T-cell lymphoblastic leukemia. Description: MiCK-type apoptosis drug screening assay (OD 600 nm, kinetic units), MOLT-3. Type of assay: cell-based, human. The conditions noted are these: MOLT-3 cells; 0.01-20 μM.
Excerpt: as §1
as §2, with “al. […]” for “al.”
as §3, §4

The record followed here is patent US20130071874A1, “SYSTEM AND METHOD FOR ANTI-CANCER DRUG CANDIDATE EVALUATION” (priority 2010, published 2013).

In the case of `COc1cccc2c1C(=O)c1c(O)c3c(c(O)c1C2=O)C[C@@](O)(C(C)=O)C[C@@H]3O[C@H]1C[C@H](N)[C@H](O)[C@H](C)O1` [Daunorubicin], the “response / suitability (in words)” value in assay [1] is recorded as “positive response at reasonable concentrations”. Turning to `CC(=O)[C@]1(O)Cc2c(O)c3c(c(O)c2[C@@H](O[C@H]2C[C@H](N)[C@H](O)[C@H](C)O2)C1)C(=O)c1ccccc1C3=O` [Idarubicin, 4-demethoxydaunorubicin], the “response / suitability (in words)” value in assay [1] is reported as “positive response at reasonable concentrations”. The “response versus concentration (in words)” value in assay [2] is recorded as “positive response was seen in the Ramos cell line only at high concentrations”. Moreover, the “kinetic unit readings versus concentration (in words)” value in assay [3] is recorded as “higher kinetic unit readings at lower concentrations”.

With `CCc1c2c(nc3ccc(OC(=O)N4CCC(N5CCCCC5)CC4)cc13)-c1cc3c(c(=O)n1C2)COC(=O)[C@]3(O)CC` [Irinotecan], in assay [1], the “response / suitability (in words)” value is reported as “need to use high concentrations of the drug to achieve a positive response”. On to `CO[C@@]12[C@H](COC(N)=O)C3=C(C(=O)C(C)=C(N)C3=O)N1C[C@@H]1N[C@@H]12` [Mitomycin], for which the “response / suitability (in words)” value in assay [1] is listed as “positive response at reasonable concentrations”. Same read-out and setting: the entry for `O=C1c2c(O)ccc(O)c2C(=O)c2c(NCCNCCO)ccc(NCCNCCO)c21` [Mitoxantrone] is “positive response at reasonable concentrations”; for `O=C1[O][Pt]2([NH][C@@H]3CCCC[C@H]3[NH]2)[O]C1=O` [Oxaliplatin] it is “not suitable drugs for treating ovarian cancer”; for `CCC1=C[C@@H]2CN(C1)Cc1c([nH]c3ccccc13)[C@@](C(=O)OC)(c1cc3c(cc1OC)N(C)[C@H]1[C@@](O)(C(=O)OC)[C@H](OC(C)=O)[C@]4(CC)C=CCN5CC[C@]31[C@@H]54)C2` [Vinorelbine] it is “not suitable drugs for treating ovarian cancer”.
